Assay results taken from patent US7534913B2, “Crystalline form of nateglinide” (Teva Pharmaceutica Industries Ltd., priority 2002, dated 2009).

Experiments:
[1] = by DSC, according to U.S. Pat. No. 5,463,116; cited from earlier work
[2] = Thermal stability: transformation of crystalline forms on drying or heating, form by XRPD; format: physicochemical; details: for form obtained upon drying / heating: generally about 40° C. to about 80° C.
Procedure: The various crystalline forms are related to each other in that drying of one form may result in a transformation to another form, namely nateglinide Forms A, B, D, E, F, G, H, I, J, K, L, M, N, Q, S, T, V, Z, α, β, δ,γ, ε, θ and Ω. The drying is carried out by heating a sample under ambient or reduced pressure. Generally, a preferred temperature is from about 40° C. to about 80° C., more preferably under reduced pressure. […] The term “stable” as used herein refers to a polymorphic change of less than about 5% by weight, more preferably less than about 2%, particularly for Form δ.
Form γ may also be prepared by heating Form J containing seeds of Form γ under similar conditions.
• X-Ray diffraction was performed on X-Ray powder diffractometer, Scintag®, variable goniometer, Cu-tube, solid state detector. Sample holder: A round standard aluminum sample holder with round zero background quartz plate. • The sample was put on the sample holder and immediately analyzed as is. Scanning parameters: Range: 2-40 deg 2θ, Continuos Scan, Rate: 3 deg./min. DSC: • DSC821^e Mettler Toledo®, Sample weight: 3-5 mg, Heating rate: 10° C./min, Number of holes in the crucible: 3 TGA: • Mettler TG50®, Sample weight: 7-15 mg, Heating rate: 10° C./min FTIR: • Perkin-Elmer®, Spectrum One FTIR spectrometer, Range: 4000-400 cm-1, no. of scans: 16, resolution: 4.0 cm-1, DRIFT technique.
Nateglinide Form delta (10 grams), with about 3% heptane (wt/wt), was dried in a fluidized bed drier for 4 hours at 60° C.
Sample of nateglinide form U (˜1 g) was introduced into a 6-gram vial and heated over 8.5 h in a 100° C. oil bath. The vial were extracted from the bath.
Sample of nateglinide form U (˜0.5 g) was heated to 120° C. for 1 h in an atmospheric pressure.
Sample of nateglinide form δ (˜0.5 g) was heated to 120° C. for 1 h in an atmospheric pressure.
The product of example 11 was dried at 50° C. in a vacuum oven overnight, and analyzed by XRD.
Nateglinide (40 grams) Form delta (1.5% heptane) was dried in a stirred reactor (7-10 rpm) under 60 mmHg vacuum and at 60° C.

[3] = heating under ambient or reduced pressure

Compound: CC(C)[C@H]1CC[C@H](C(=O)N[C@H](Cc2ccccc2)C(=O)O)CC1 [Form B, nateglinide]
- stability of crystals during grinding [1]: unstable and susceptible to change during grinding

Compound: CC(C)[C@H]1CC[C@H](C(=O)N[C@H](Cc2ccccc2)C(=O)O)CC1 [delta]
- polymorph after drying in a stirred reactor ([2]; 60 mmHg vacuum, 60° C., 6 hours, 7-10 rpm, starting with 1.5% heptane): remained delta form
- polymorphic form after drying in a fluidized bed drier ([2]; 4 hours at 60° C., starting with about 3% heptane (wt/wt)): delta

Compound: CC(C)[C@H]1CC[C@H](C(=O)N[C@H](Cc2ccccc2)C(=O)O)CC1 [sigma]
- thermal stability (conversion to another form upon heating) [2, 3]: thermally stable

Compound: CC(C)[C@H]1CC[C@H](C(=O)N[C@H](Cc2ccccc2)C(=O)O)CC1 [nitromethane solvates of Form Epsilon, nateglinide]
- form obtained upon drying / heating [2, 3]: Forms H or P

Compound: CC(C)[C@H]1CC[C@H](C(=O)N[C@H](Cc2ccccc2)C(=O)O)CC1 [acetonitrile solvate of Form Epsilon, nateglinide]
- form obtained upon drying / heating [2, 3]: Form B

Compound: CC(C)[C@H]1CC[C@H](C(=O)N[C@H](Cc2ccccc2)C(=O)O)CC1 [Form Ω, nateglinide]
- form by XRD after drying in a vacuum oven ([2]; wet sample, 50° C., vacuum oven, overnight): mixture of Form omega and Form Z
